Drawing on patent publication US20170088545A1, “CARBOXAMIDE INHIBITORS” (Norvartis AG, priority 2014, published 2017), this text covers IC50 for 19 compounds.

One experiment concerns the target Smurf-2 (Homo sapiens, UniProt Q9HAU4). The experiment can be described thus: HECT E3 ligase autoubiquitinylation TR-FRET assay, Smurf-2. Type of experiment: biochemical. Conditions: 45 min incubation, 8-point dose-response. The text has this:
(§1) To determine the HECT E3 ligase selectivity of the compounds, a panel of biochemical HECT E3 ligase autoubiquitinylation assays was employed (Smurf-1, Smurf-2, WWP1, WWP2, ITCH, Nedd4, Nedd4L and E6AP). The conjugation of ubiquitin to a protein substrate is a multistep process. In an initial ATP-requiring step, a thioester bond is formed between the carboxyl terminus of ubiquitin and an internal cystein residue of the ubiquitin-activating enzyme (E1). Activated ubiquitin is then transferred to a specific cystein residue of an ubiquitin-conjugating enzyme (E2). E2s donate ubiquitin to a HECT E3 ligase (E3) from which it is transferred to the substrate protein. HECT E3 ligases can auto-ubiquitinylate. This event is detected in the TR-FRET (Time-Resolved Fluorescence Resonance Energy Transfer) assay used in this panel. The reaction mix contains E1, E2, tagged-E3, biotin-conjugated ubiquitin, the compound and ATP in a suitable buffer and is incubated for 45 minutes to allow auto-ubiquitinylation of the E3 ligase. To measure the extent of ubiquitinylated E3 ligase by TR-FRET, the donor fluorophore Europium cryptate (Eu3+ cryptate), conjugated to streptavidin which subsequently binds to biotinylated ubiquitin, and the modified allophycocyanin XL665 (HTRF® primary acceptor fluorophore) coupled to a tag-specific antibody (HA, His or GST), which recognizes the respective E3 ligase fusion proteins, are added after the reaction is complete. When these two fluorophores are brought together by a biomolecular interaction (in this case ubiquitinylation of the E3 ligase), a portion of the energy captured by the Cryptate during excitation is released through fluorescence emission at 620 nm, while the remaining energy is transferred to XL665. This energy is then released by XL665 as specific fluorescence at 665 nm. Light at 665 nm is emitted only through FRET with Europium.
(§2) Test and reference compounds are prepared at 180× [final] in 90% DMSO, and diluted 1:3 in 90% DMSO.
(§3) For the biochemical assay panel, 50 nl of the test compounds, reference compounds and buffer/DMSO control are transferred to the respective wells of a 384-well white GREINER “SMALL VOLUME” PS plate. The assay panel is run at room temperature on a Biomek FX liquid handling workstation. To the assay plates containing 50 nl compound or control solutions in 90% DMSO, 4.5 ul of E3 ligase solution were added per well, followed by 4.5 ul of the pre-incubated E1/E2/Ub mix or the pre-diluted ubiquitin (LOW control). Plates are shaken vigorously after each addition. In this assay the compound concentrations range from 3 nM to 10 uM in an 8-point dose-response curve.
(§4) After 45 min of incubation the ubiquitinylation reactions were stopped by adding 4.5 ul 2 mM NEM, immediately followed by 4.5 ul of a detection solution including the XL665-labeled antibody and the streptavidin-coupled europium to give a total volume of 18 ul. After an incubation time of 45 min in the dark, the plates are transferred into the Pherastar fluorescence reader to measure the TR-FRET signal.
In general terms: In TR-FRET formats the signal depends on donor and acceptor labels being close together.

The target in another experiment is Smurf-1 (Homo sapiens, UniProt Q9HCE7). Description: HECT E3 ligase autoubiquitinylation TR-FRET assay, Smurf-1. Conditions: 45 min incubation, 8-point dose-response. Format: biochemical.
Sequence of Smurf-1 (Q9HCE7 whole entry): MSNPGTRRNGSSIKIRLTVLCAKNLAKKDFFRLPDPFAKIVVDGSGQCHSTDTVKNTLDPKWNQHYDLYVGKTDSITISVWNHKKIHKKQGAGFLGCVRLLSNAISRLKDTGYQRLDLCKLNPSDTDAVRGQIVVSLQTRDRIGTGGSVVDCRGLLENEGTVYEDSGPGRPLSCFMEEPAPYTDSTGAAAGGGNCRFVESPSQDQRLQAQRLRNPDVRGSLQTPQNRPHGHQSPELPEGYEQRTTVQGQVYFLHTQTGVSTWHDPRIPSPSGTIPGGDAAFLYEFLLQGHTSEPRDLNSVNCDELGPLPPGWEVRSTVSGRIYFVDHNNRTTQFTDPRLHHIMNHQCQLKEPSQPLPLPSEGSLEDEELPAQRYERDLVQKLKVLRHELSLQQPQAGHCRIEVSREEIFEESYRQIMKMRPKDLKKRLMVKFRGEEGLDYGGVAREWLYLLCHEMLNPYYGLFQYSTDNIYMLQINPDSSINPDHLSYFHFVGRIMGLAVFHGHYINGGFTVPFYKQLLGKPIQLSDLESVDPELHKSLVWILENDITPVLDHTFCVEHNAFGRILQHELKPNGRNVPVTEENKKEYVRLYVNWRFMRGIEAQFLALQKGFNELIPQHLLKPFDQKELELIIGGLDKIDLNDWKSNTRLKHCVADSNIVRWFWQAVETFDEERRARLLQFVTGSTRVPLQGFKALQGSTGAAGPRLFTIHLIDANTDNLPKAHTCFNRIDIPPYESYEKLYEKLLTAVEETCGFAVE
Excerpt: as §1, §2, §3, §4

Sequence of Smurf-2 (Q9HAU4 whole entry, species assumed): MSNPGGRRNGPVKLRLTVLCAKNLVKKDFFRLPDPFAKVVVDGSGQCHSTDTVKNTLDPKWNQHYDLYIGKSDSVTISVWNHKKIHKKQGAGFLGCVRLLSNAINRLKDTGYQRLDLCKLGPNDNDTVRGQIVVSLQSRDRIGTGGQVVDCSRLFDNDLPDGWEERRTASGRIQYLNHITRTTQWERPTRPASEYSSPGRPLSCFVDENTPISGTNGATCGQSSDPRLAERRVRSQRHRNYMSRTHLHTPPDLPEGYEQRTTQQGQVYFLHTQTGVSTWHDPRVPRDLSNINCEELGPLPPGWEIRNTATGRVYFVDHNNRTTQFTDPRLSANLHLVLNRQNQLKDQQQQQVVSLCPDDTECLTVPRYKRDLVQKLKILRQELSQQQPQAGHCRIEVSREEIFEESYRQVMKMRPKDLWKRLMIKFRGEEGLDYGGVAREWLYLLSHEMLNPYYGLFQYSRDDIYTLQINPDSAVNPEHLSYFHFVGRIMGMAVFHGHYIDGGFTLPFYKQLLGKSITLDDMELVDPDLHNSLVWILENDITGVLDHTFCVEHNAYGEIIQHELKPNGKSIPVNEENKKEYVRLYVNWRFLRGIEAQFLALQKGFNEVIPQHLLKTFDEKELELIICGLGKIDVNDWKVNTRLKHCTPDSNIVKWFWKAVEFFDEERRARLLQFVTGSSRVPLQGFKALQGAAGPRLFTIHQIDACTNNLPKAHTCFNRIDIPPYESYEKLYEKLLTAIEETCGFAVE

For `Cc1c(C(=O)Nc2c(C)n(C)n(-c3ccccc3F)c2=O)noc1-c1ccc(Cl)cc1Cl` [Example 001, 5-(2,4-Dichlorophenyl)-N-(2-(2-fluorophenyl)-1,5-dimethyl-3-oxo-2,3-dihydro-1H-pyrazol-4-yl)-4-methylisoxazole-3-carboxamide], the IC50 – broadly, the point on the concentration scale where inhibition reaches its midpoint – on Smurf-2 is greater than 10000 nM; on Smurf-1, 29.5 nM.

Regarding `Cc1c(C(=O)Nc2c(C)n(C)n(-c3ccccc3F)c2=O)noc1-c1ccc(C2CC2)cc1Cl` [Example 002, 5-(2-Chloro-4-cyclopropylphenyl)-N-(2-(2-fluorophenyl)-1,5-dimethyl-3-oxo-2,3-dihydro-1H-pyrazol-4-yl)-4-methylisoxazole-3-carboxamide], the figures for the half-inhibitory concentration (IC50) at Smurf-2 and on Smurf-1 were 3660 nM and 13.4 nM, respectively.

Take `Cc1c(NC(=O)c2noc(-c3ccc(OC(F)F)cc3Cl)c2Cl)c(=O)n(-c2ccccc2F)n1C` [Example 003, 4-Chloro-5-(2-chloro-4-(difluoromethoxy)phenyl)-N-(2-(2-fluorophenyl)-1,5-dimethyl-3-oxo-2,3-dihydro-1H-pyrazol-4-yl)isoxazole-3-carboxamide]: the 50% inhibitory concentration (IC50) was 16800 nM against Smurf-2 and 54.3 nM against Smurf-1.

For `COc1ccc(-c2onc(C(=O)Nc3c(C)n(C)n(-c4ccccc4F)c3=O)c2C)c(Cl)c1` [Example 006, 5-(2-Chloro-4-methoxyphenyl)-N-(2-(2-fluorophenyl)-1,5-dimethyl-3-oxo-2,3-dihydro-1H-pyrazol-4-yl)-4-methylisoxazole-3-carboxamide], the IC50 on Smurf-2 is 10800 nM; against Smurf-1, 23.5 nM.

With `Cc1c(C(=O)Nc2c(C)n(C)n(-c3ccccc3F)c2=O)noc1-c1ccc(C(F)(F)F)cc1` [Example 008, N-(2-(2-Fluorophenyl)-1,5-dimethyl-3-oxo-2,3-dihydro-1H-pyrazol-4-yl)-4-methyl-5-(4-(trifluoromethyl)phenyl) isoxazole-3-carboxamide], the IC50 against Smurf-2 was greater than 10000 nM; at Smurf-1, 883 nM.

On to `Cc1c(C(=O)Nc2c(C)n(C)n(C3CCCCC3)c2=O)noc1-c1ccc(OC(F)(F)F)cc1Cl` [Example 010, 5-(2-Chloro-4-(trifluoromethoxy)phenyl)-N-(2-cyclohexyl-1,5-dimethyl-3-oxo-2,3-dihydro-1H-pyrazol-4-yl)-4-methylisoxazole-3-carboxamide], for which the figures for the IC50 against Smurf-2 and against Smurf-1 were 2740 nM and 22.7 nM, respectively.

As for `CSc1ccc(-c2onc(C(=O)Nc3c(C)n(C)n(-c4ccccc4F)c3=O)c2C)cc1` [Example 011, N-(2-(2-Fluorophenyl)-1,5-dimethyl-3-oxo-2,3-dihydro-1H-pyrazol-4-yl)-4-methyl-5-(4-(methylthio)phenyl) isoxazole-3-carboxamide], the concentration for half-maximal inhibition (IC50) is greater than 10000 nM on Smurf-2 and 777 nM at Smurf-1.

Regarding `Cc1c(C(=O)Nc2c(C)n(C)n(-c3ccccc3F)c2=O)noc1-c1ccc(N(C)C)cc1` [Example 012, 5-(4-(Dimethylamino)phenyl)-N-(2-(2-fluorophenyl)-1,5-dimethyl-3-oxo-2,3-dihydro-1H-pyrazol-4-yl)-4-methylisoxazole-3-carboxamide], the 50% inhibitory concentration (IC50) at Smurf-2 is greater than 10000 nM; against Smurf-1, 1050 nM.

Turning to `COc1ccc(-c2onc(C(=O)Nc3c(C)n(C)n(-c4ccccc4F)c3=O)c2C)c(C(F)(F)F)c1` [Example 013, N-(2-(2-Fluorophenyl)-1,5-dimethyl-3-oxo-2,3-dihydro-1H-pyrazol-4-yl)-5-(4-methoxy-2-(trifluoromethyl)phenyl)-4-methylisoxazole-3-carboxamide], the figures for the IC50 at Smurf-2 and on Smurf-1 were greater than 20000 nM and 102 nM, respectively.

For `Cc1c(C(=O)Nc2c(C)n(C)n(C3CCCCC3)c2=O)noc1-c1ccc(C2CC2)cc1Cl` [Example 019, 5-(2-Chloro-4-cyclopropylphenyl)-N-(2-cyclohexyl-1,5-dimethyl-3-oxo-2,3-dihydro-1H-pyrazol-4-yl)-4-methylisoxazole-3-carboxamide], the 50% inhibitory concentration (IC50) at Smurf-2 is 3100 nM; against Smurf-1, 3.5 nM.

As to `COc1ccc(-c2onc(C(=O)Nc3c(C)n(C)n(-c4ccccc4F)c3=O)c2Cl)c(F)c1Cl` [Example 021, 4-Chloro-5-(3-chloro-2-fluoro-4-methoxyphenyl)-N-(2-(2-fluorophenyl)-1,5-dimethyl-3-oxo-2,3-dihydro-1H-pyrazol-4-yl)isoxazole-3-carboxamide], the half-maximal inhibitory concentration (IC50) on Smurf-2 is greater than 10000 nM; against Smurf-1, 810 nM.

For the compound `COc1ccc(-c2onc(C(=O)Nc3c(C)n(C)n(-c4ccccc4F)c3=O)c2Cl)c(F)c1` [Example 022, 4-Chloro-5-(2-fluoro-4-methoxyphenyl)-N-(2-(2-fluorophenyl)-1,5-dimethyl-3-oxo-2,3-dihydro-1H-pyrazol-4-yl) isoxazole-3-carboxamide], the figures for the IC50 at Smurf-2 and against Smurf-1 were greater than 10000 nM and 1160 nM, respectively.

With `Cc1c(NC(=O)c2noc(-c3ccc(Cl)cc3Cl)c2Cl)c(=O)n(C2CCCCC2)n1C` [Example 023, 4-Chloro-N-(2-cyclohexyl-1,5-dimethyl-3-oxo-2,3-dihydro-1H-pyrazol-4-yl)-5-(2,4-dichlorophenyl) isoxazole-3-carboxamide], the IC50 was 4250 nM on Smurf-2 and 2.4 nM at Smurf-1.

Take `Cc1c(NC(=O)c2noc(-c3ccc(C4CC4)cc3Cl)c2Cl)c(=O)n(-c2ccccc2F)n1C` [Example 030, 4-Chloro-5-(2-chloro-4-cyclopropylphenyl)-N-(2-(2-fluorophenyl)-1,5-dimethyl-3-oxo-2,3-dihydro-1H-pyrazol-4-yl)isoxazole-3-carboxamide]: the values for the IC50 at Smurf-2 and at Smurf-1 were 5400 nM and 13.3 nM, respectively.

Consider `COc1ccc(-c2onc(C(=O)Nc3c(C)n(C)n(-c4ccccc4F)c3=O)c2F)c(Cl)c1` [Example 033, 5-(2-Chloro-4-methoxyphenyl)-4-fluoro-N-(2-(2-fluorophenyl)-1,5-dimethyl-3-oxo-2,3-dihydro-1H-pyrazol-4-yl)isoxazole-3-carboxamide], for which the figures for the IC50 at Smurf-2 and against Smurf-1 were greater than 20000 nM and 220 nM, respectively.

For `COc1ccc(-c2onc(C(=O)Nc3c(C)n(C)n(C4CCCCC4)c3=O)c2Br)c(Cl)c1` [Example 034, 4-Bromo-5-(2-chloro-4-methoxyphenyl)-N-(2-cyclohexyl-1,5-dimethyl-3-oxo-2,3-dihydro-1H-pyrazol-4-yl)isoxazole-3-carboxamide], the IC50 against Smurf-2 came out at 5230 nM; at Smurf-1 it was 3.7 nM.

In the case of `Cc1c(NC(=O)c2noc(-c3ccc(Cl)cc3Cl)c2Br)c(=O)n(-c2ccccc2F)n1C` [Example 037, 4-Bromo-5-(2,4-dichlorophenyl)-N-(2-(2-fluorophenyl)-1,5-dimethyl-3-oxo-2,3-dihydro-1H-pyrazol-4-yl)isoxazole-3-carboxamide], the IC50 on Smurf-2 was 17800 nM; at Smurf-1, 36 nM.

For `Cc1c(NC(=O)c2noc(-c3ccc(Cl)cc3Cl)c2C2CC2)c(=O)n(C2CCCCC2)n1C` [Example 039, N-(2-Cyclohexyl-1,5-dimethyl-3-oxo-2,3-dihydro-1H-pyrazol-4-yl)-4-cyclopropyl-5-(2,4-dichlorophenyl) isoxazole-3-carboxamide], the results for the concentration for half-maximal inhibition (IC50) against Smurf-2 and against Smurf-1 were 7500 nM and 8.3 nM, respectively.

On to `Cc1c(NC(=O)c2noc(-c3ccc(Cl)cc3Cl)c2C#N)c(=O)n(-c2ccccc2F)n1C` [Example 042, 4-Cyano-5-(2,4-dichlorophenyl)-N-(2-(2-fluorophenyl)-1,5-dimethyl-3-oxo-2,3-dihydro-1H-pyrazol-4-yl)isoxazole-3-carboxamide], for which the IC50 against Smurf-2 stood at 19200 nM; on Smurf-1, 450 nM.
